This note sets out measurements from patent publication US7166598B2, “Piperazine derivatives” (Astellas Pharma Inc., priority 1998, dated 2007).

Consider `Cl.Cn1cc(CN2CCN(C(=O)c3cc(C(F)(F)F)cc(C(F)(F)F)c3)[C@H](Cc3ccc(F)c(O)c3)C2)cn1`, for which the melting point (commonly the temperature, or range, at which the solid turns liquid) was in the range of 160 to 170 °C. The value for `Cl.Cl.O=C(c1cc(C(F)(F)F)cc(C(F)(F)F)c1)N1CCN(CCCc2cccnc2)C[C@H]1Cc1ccc(F)c(O)c1` was 80 to 95 °C.

On to `COc1cc(C(=O)N2CCN(Cc3cccnc3)C[C@H]2Cc2ccc(C(F)(F)F)cc2)cc(C(F)(F)F)c1.Cl.Cl`, for which the melting point is 101 to 108 °C. In turn, `CSc1cc(C(=O)N2CCN(CCN3C[C@@H](C)O[C@@H](C)C3)C[C@H]2Cc2ccc(Cl)c(O)c2)cc(C(F)(F)F)c1.Cl.Cl` registered a melting point of 162 to 178 °C.

`CSc1cc(C(=O)N2CCN(CCN3CCc4ncccc4C3)C[C@H]2Cc2ccc(Cl)c(O)c2)cc(C(F)(F)F)c1.Cl.Cl.Cl`: the melting point fell in the range of 169 to 178 °C. For the compound `COC[C@@H]1CN(C/C=C/CN2CCN(C(=O)c3cc(C(F)(F)F)cc(C(F)(F)F)c3)[C@H](Cc3ccc(C)c(O)c3)C2)CCO1.Cl.Cl`, the melting point was 50 to 70 °C.

`Cc1ccc(C[C@@H]2CN(CCN3CCOc4cccnc43)CCN2C(=O)c2cc(C(F)(F)F)cc(C(F)(F)F)c2)cc1O.Cl.Cl` returned a melting point of 190 to 200 °C. The same measure for `Cc1ccc(C[C@@H]2CN(Cc3cccnc3)CCN2C(=O)c2cc(C(F)(F)F)cc(C(F)(F)F)c2)cc1O.Cl.Cl`: 110 to 130 °C. The value for `Cc1ccc(C[C@@H]2CN(CCN3CCc4ncccc4C3)CCN2C(=O)c2cc(C(F)(F)F)cc(C(F)(F)F)c2)cc1O.Cl.Cl.Cl` was 255 to 270 °C; that for `CN(C)c1cc(C(=O)N2CCN(CCN3CCc4ncccc4C3)C[C@H]2Cc2ccc(Cl)cc2)cc(C(F)(F)F)c1.Cl.Cl.Cl` was 209 to 214 °C; that for `Cc1ccc(CC2CN(C/C=C/c3cccnc3)CCN2C(=O)c2cc(C(F)(F)F)cc(C(F)(F)F)c2)cc1O.Cl.Cl` (stereo not shown) was 60 to 80 °C. In turn, `COC[C@H]1CN(CCN2CCN(C(=O)c3cc(C(F)(F)F)cc(C(F)(F)F)c3)[C@H](Cc3ccc(Cl)c(O)c3)C2)CCO1.Cl.Cl` registered a melting point of 204 to 214 °C. The value for `Cl.Cl.O=C(c1cc(C(F)(F)F)cc(C(F)(F)F)c1)N1CCN(CCN2[C@H](CO)CCC[C@@H]2CO)C[C@H]1Cc1ccc(C(F)(F)F)cc1` was 164 to 167 °C; that for `COc1cc(C[C@@H]2CN(CCN3CCc4ncccc4C3)CCN2C(=O)c2cc(-c3ccncc3)cc(C(F)(F)F)c2)ccc1F.Cl.Cl.Cl.Cl` was 236.8 to 248.5 °C. The same measure for `COC[C@@H]1CN(CCN2CCN(C(=O)c3cc(SC)cc(C(F)(F)F)c3)[C@H](Cc3ccc(C(F)(F)F)cc3)C2)CCO1.Cl.Cl`: 153 to 170 °C; for `COC[C@@H]1CN(CCN2CCN(C(=O)c3cc(Cl)cc(C(F)(F)F)c3)[C@H](Cc3ccc(C(F)(F)F)cc3)C2)CCO1.Cl.Cl`: 168 to 173 °C.

`COc1cc(C(=O)N2CCN(CCN3C[C@@H](C)O[C@@H](C)C3)C[C@H]2Cc2ccc(Cl)c(O)c2)cc(C(F)(F)F)c1.Cl.Cl` yielded a melting point of 177 to 182 °C. The compound `C[C@@H]1CN(CCN2CCN(C(=O)c3cc(C(F)(F)F)cc(C(F)(F)F)c3)[C@H](Cc3ccc(F)c(F)c3)C2)C[C@H](C)O1.Cl.Cl` yielded a melting point of 223 to 228 °C.

Turning to `COC[C@@H]1CN(CCN2CCN(C(=O)c3cc(C(F)(F)F)cc(C(F)(F)F)c3)[C@H](Cc3ccc(C)c(F)c3)C2)CCO1.Cl.Cl`, the melting point lay within 148 to 160 °C. The value for `COC[C@@H]1CN(CCN2CCN(C(=O)c3cc(OC)cc(C(F)(F)F)c3)[C@H](Cc3ccc(C(F)(F)F)cc3)C2)CCO1.Cl.Cl` was 126 to 155 °C. The same measure for `Cl.Cl.O=C(c1cc(C(F)(F)F)cc(C(F)(F)F)c1)N1CCN(CCN2CCC(F)(F)CC2)C[C@H]1Cc1ccc(Cl)c(O)c1`: 166 to 170 °C; for `COc1cc(C(=O)N2CCN(CC#CCN3CCOCC3(C)C)C[C@H]2Cc2ccc3ccccc3c2)cc(C(F)(F)F)c1.Cl.Cl`: 190 to 199 °C.
